From patent publication US6737383B1, “Herbicidal oxadiazolidines” (priority 1999, dated 2004)

Key:
rape = assay: Test B pre/postemergence rape; type: in vivo, Brassica napus
Outline: (§1)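 Test chemicals in a non-phytotoxic solvent mixture with surfactant were sprayed preemergence onto planted seeds and postemergence onto plants 2 to 18 cm tall (1- to 4-leaf stage). After twelve to sixteen days in a greenhouse, injury was visually rated against untreated controls from 0 (no effect) to 10 (complete control).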

purple nutsedge = assay: Test B pre/postemergence purple nutsedge; type: in vivo, Cyperus rotundus
Outline: as §1

giant foxtail = assay: Test B pre/postemergence giant foxtail; type: in vivo, Setaria faberii
Outline: as §1

morningglory = assay: Test B pre/postemergence morningglory; type: in vivo, Ipomoea hederacea
Outline: as §1

cocklebur = assay: Test B pre/postemergence cocklebur; type: in vivo, Xanthium strumarium
Outline: as §1

bedstraw = assay: Test B pre/postemergence bedstraw; type: in vivo, Galium aparine
Outline: as §1

surinam grass = assay: Test B pre/postemergence surinam grass; type: in vivo, Brachiaria decumbens
Outline: as §1

pigweed = assay: Test B pre/postemergence pigweed; type: in vivo, Amaranthus retroflexus
Outline: as §1

blackgrass = assay: Test B pre/postemergence blackgrass; type: in vivo, Alopecurus myosuroides
Outline: as §1

crabgrass = assay: Test B pre/postemergence crabgrass; type: in vivo, Digitaria sanguinalis
Outline: as §1

velvetleaf = assay: Test B pre/postemergence velvetleaf; type: in vivo, Abutilon theophrasti
Outline: as §1

soybean = assay: Test B pre/postemergence soybean; type: in vivo, Glycine max
Outline: as §1

wheat = assay: Test B pre/postemergence wheat; type: in vivo, Triticum aestivum
Outline: as §1

corn = assay: Test B pre/postemergence corn; type: in vivo, Zea mays
Outline: as §1

wild oat = assay: Test B pre/postemergence wild oat; type: in vivo, Avena fatua
Outline: as §1

sugar beet = assay: Test B pre/postemergence sugar beet; type: in vivo, Beta vulgaris
Outline: as §1

[1] = Postemergence, Rate 62 g/ha, scale of 0 to 10, 0 is no effect, 10 is complete control
[2] = Postemergence, Rate 125 g/ha, scale of 0 to 10 where 0 is no effect and 10 is complete control
[3] = Postemergence, Rate 250 g/ha, scale of 0 to 10, 0 is no effect, 10 is complete control
[4] = Postemergence, Rate 500 g/ha, scale of 0 to 10 where 0 is no effect and 10 is complete control
[5] = Preemergence, Rate 62 g/ha, scale 0 to 10 (0 no effect, 10 complete control)
[6] = Preemergence, Rate 125 g/ha, scale of 0 to 10 where 0 is no effect and 10 is complete control
[7] = Preemergence, Rate 500 g/ha, scale of 0 to 10 where 0 is no effect and 10 is complete control
[8] = Postemergence, Rate 62 g/ha, scale 0 to 10, 0 is no effect, 10 is complete control
[9] = Preemergence, Rate 62 g/ha, scale of 0 to 10 where 0 is no effect and 10 is complete control
[10] = Preemergence, Rate 250 g/ha, scale 0 to 10 (0 no effect, 10 complete control)

CC(C)N(C(=O)n1oc(=O)n(CCC(F)(F)F)c1=O)c1ccccc1 [Compound 584]
9: Rape plant response rating (rape; [3]) | Plant response rating, Rape (rape; [4]) | Giant foxtail plant response rating (giant foxtail; [3]) | Plant response rating, Giant foxtail (giant foxtail; [4]) | Giant foxtail plant response rating (giant foxtail; [5]) | Bedstraw plant response rating (bedstraw; [3]) | Bedstraw plant response rating (bedstraw; [5]) | Bedstraw plant response rating (0 to 10 scale) (bedstraw; Preemergence, Rate 250 g/ha) | Bedstraw plant response rating (bedstraw; [7]) | Plant response rating, B. signalgrass (surinam grass; [4]) | B. signalgrass plant response rating (surinam grass; [7]) | Redroot pigweed plant response rating (pigweed; [7]) | Blackgrass plant response rating (blackgrass; [5]) | Plant response rating, Crabgrass (crabgrass; [4]) | Crabgrass plant response rating (crabgrass; [7]) | Wild oats plant response rating (wild oat; [7])
10: Giant foxtail plant response rating (giant foxtail; [7])
1: Morningglory plant response rating (morningglory; [1]) | Crabgrass plant response rating (crabgrass; [1])
5: Morningglory plant response rating (morningglory; [3]) | Bedstraw plant response rating (bedstraw; [1]) | Plant response rating, Bedstraw (bedstraw; [2]) | Blackgrass plant response rating (blackgrass; [1]) | Plant response rating, Velvetleaf (velvetleaf; [4]) | Velvetleaf plant response rating (velvetleaf; [7]) | Sugarbeets plant response rating (sugar beet; [3]) | Sugarbeets plant response rating (sugar beet; [7])
2: Plant response rating, Cocklebur (cocklebur; [2]) | Plant response rating, Redroot pigweed (pigweed; [2]) | Redroot pigweed plant response rating (pigweed; [3]) | Plant response rating, Wheat (wheat; [2]) | Plant response rating, Corn (corn; [2]) | Corn plant response rating (0 to 10 scale) (corn; Preemergence, Rate 250 g/ha) | Wild oats plant response rating (wild oat; [3]) | Wild oats plant response rating (wild oat; [6]) | Plant response rating, Sugarbeets (sugar beet; [2]) | Sugarbeets plant response rating (sugar beet; [6])
8: Plant response rating, Giant foxtail (giant foxtail; [2]) | Giant foxtail plant response rating (giant foxtail; [6]) | Redroot pigweed plant response rating (pigweed; [6]) | Blackgrass plant response rating (0 to 10 scale) (blackgrass; Preemergence, Rate 250 g/ha) | Crabgrass plant response rating (crabgrass; [5]) | Crabgrass plant response rating (crabgrass; [6]) | Plant response rating, Sugarbeets (sugar beet; [4])
0: Nutsedge plant response rating (purple nutsedge; [1]) | Plant response rating, Nutsedge (purple nutsedge; [2]) | Nutsedge plant response rating (purple nutsedge; [3]) | Nutsedge plant response rating (purple nutsedge; [5]) | Nutsedge plant response rating (purple nutsedge; [6]) | Nutsedge plant response rating (purple nutsedge; [7]) | Cocklebur plant response rating (cocklebur; [1]) | Cocklebur plant response rating (cocklebur; [5]) | Cocklebur plant response rating (cocklebur; [6]) | Cocklebur plant response rating (0 to 10 scale) (cocklebur; Preemergence, Rate 250 g/ha) | Cocklebur plant response rating (cocklebur; [7]) | Velvetleaf plant response rating (velvetleaf; [5]) | Velvetleaf plant response rating (velvetleaf; [6]) | Soybean plant response rating (soybean; [5]) | Soybean plant response rating (soybean; [6]) | Soybean plant response rating (soybean; [7]) | Wheat plant response rating (wheat; [5]) | Wheat plant response rating (wheat; [6]) | Corn plant response rating (corn; [1]) | Corn plant response rating (corn; [5]) | Corn plant response rating (corn; [6]) | Plant response rating, Wild oats (wild oat; [2]) | Wild oats plant response rating (wild oat; [5]) | Sugarbeets plant response rating (sugar beet; [5])
7: Giant foxtail plant response rating (giant foxtail; [1]) | B. signalgrass plant response rating (surinam grass; [3]) | B. signalgrass plant response rating (surinam grass; [5]) | B. signalgrass plant response rating (surinam grass; [6]) | Plant response rating, Redroot pigweed (pigweed; [4]) | Redroot pigweed plant response rating (pigweed; [5]) | Plant response rating, Blackgrass (blackgrass; [2]) | Blackgrass plant response rating (blackgrass; [3]) | Plant response rating, Blackgrass (blackgrass; [4]) | Plant response rating, Crabgrass (crabgrass; [2]) | Plant response rating, Wild oats (wild oat; [4])
4: Plant response rating, Rape (rape; [2]) | Rape plant response rating (rape; [6]) | Rape plant response rating (rape; [7]) | Plant response rating, Morningglory (morningglory; [2]) | Morningglory plant response rating (morningglory; [5]) | Morningglory plant response rating (morningglory; [6]) | Cocklebur plant response rating (cocklebur; [3]) | Plant response rating, Cocklebur (cocklebur; [4]) | Plant response rating, Soybean (soybean; [4]) | Plant response rating, Corn (corn; [4])
6: Crabgrass plant response rating (crabgrass; [3]) | Plant response rating, Wheat (wheat; [4])
3: Rape plant response rating (rape; [1]) | Rape plant response rating (rape; [5]) | Plant response rating, Nutsedge (purple nutsedge; [4]) | Plant response rating, Morningglory (morningglory; [4]) | Morningglory plant response rating (morningglory; [7]) | B. signalgrass plant response rating (surinam grass; [1]) | Plant response rating, B. signalgrass (surinam grass; [2]) | Plant response rating, Velvetleaf (velvetleaf; [2]) | Velvetleaf plant response rating (velvetleaf; [3]) | Plant response rating, Soybean (soybean; [2]) | Soybean plant response rating (soybean; [3]) | Wheat plant response rating (wheat; [3]) | Wheat plant response rating (wheat; [7]) | Corn plant response rating (corn; [3]) | Corn plant response rating (corn; [7])

CCCCn1c(=O)on(C(=O)N(c2ccc(F)cc2F)C(C)C)c1=O [Compound 635]
5: Plant response rating, Rape (rape; [2]) | Plant response rating, Giant foxtail (giant foxtail; [8]) | Plant response rating, Bedstraw (bedstraw; [8]) | Wild oats plant response rating (wild oat; [3]) | Sugarbeets plant response rating (sugar beet; [6])
4: Plant response rating, Nutsedge (purple nutsedge; [7]) | Plant response rating, Morningglory (morningglory; [2]) | Morningglory plant response rating (morningglory; [3]) | B. signalgrass plant response rating (surinam grass; [9]) | Plant response rating, Crabgrass (crabgrass; [8]) | Plant response rating, Soybean (soybean; [2]) | Soybean plant response rating (soybean; [3]) | Plant response rating, Wheat (wheat; [7])
8: Plant response rating, Giant foxtail (giant foxtail; [2]) | Giant foxtail plant response rating (giant foxtail; [3]) | Bedstraw plant response rating (bedstraw; [6]) | Plant response rating, B. signalgrass (surinam grass; [4]) | B. signalgrass plant response rating (surinam grass; [6]) | Plant response rating, Blackgrass (blackgrass; [7]) | Crabgrass plant response rating (crabgrass; [3]) | Plant response rating, Corn (corn; [7]) | Plant response rating, Sugarbeets (sugar beet; [10])
0: Plant response rating, Nutsedge (purple nutsedge; [8]) | Plant response rating, Nutsedge (purple nutsedge; [2]) | Nutsedge plant response rating (purple nutsedge; [9]) | Nutsedge plant response rating (purple nutsedge; [6]) | Morningglory plant response rating (morningglory; [9]) | Morningglory plant response rating (morningglory; [6]) | Plant response rating, Morningglory (morningglory; [10]) | Cocklebur plant response rating (cocklebur; [9]) | Cocklebur plant response rating (cocklebur; [6]) | Plant response rating, Cocklebur (cocklebur; [10]) | Plant response rating, Cocklebur (cocklebur; [7]) | Plant response rating, B. signalgrass (surinam grass; [8]) | Plant response rating, B. signalgrass (surinam grass; [2]) | Plant response rating, Redroot pigweed (pigweed; [8]) | Plant response rating, Redroot pigweed (pigweed; [2]) | Plant response rating, Velvetleaf (velvetleaf; [8]) | Plant response rating, Velvetleaf (velvetleaf; [2]) | Velvetleaf plant response rating (velvetleaf; [9]) | Soybean plant response rating (soybean; [9]) | Soybean plant response rating (soybean; [6]) | Plant response rating, Soybean (soybean; [10]) | Plant response rating, Wheat (wheat; [8]) | Plant response rating, Wheat (wheat; [2]) | Wheat plant response rating (wheat; [9]) | Wheat plant response rating (wheat; [6]) | Plant response rating, Corn (corn; [8]) | Plant response rating, Corn (corn; [2]) | Corn plant response rating (corn; [3]) | Corn plant response rating (corn; [9]) | Plant response rating, Wild oats (wild oat; [8]) | Plant response rating, Wild oats (wild oat; [2])
10: Plant response rating, Giant foxtail (giant foxtail; [10]) | Plant response rating, Giant foxtail (giant foxtail; [7]) | Redroot pigweed plant response rating (pigweed; [9]) | Redroot pigweed plant response rating (pigweed; [6]) | Plant response rating, Redroot pigweed (pigweed; [10]) | Plant response rating, Redroot pigweed (pigweed; [7])
2: Plant response rating, Rape (rape; [8]) | Plant response rating, Cocklebur (cocklebur; [8]) | Plant response rating, Cocklebur (cocklebur; [2]) | B. signalgrass plant response rating (surinam grass; [3]) | Plant response rating, Blackgrass (blackgrass; [8]) | Velvetleaf plant response rating (velvetleaf; [3]) | Plant response rating, Soybean (soybean; [7]) | Wheat plant response rating (wheat; [3]) | Plant response rating, Corn (corn; [4]) | Plant response rating, Corn (corn; [10]) | Wild oats plant response rating (wild oat; [9])
1: Plant response rating, Morningglory (morningglory; [8])
9: Plant response rating, Rape (rape; [4]) | Plant response rating, Rape (rape; [7]) | Plant response rating, Giant foxtail (giant foxtail; [4]) | Giant foxtail plant response rating (giant foxtail; [9]) | Giant foxtail plant response rating (giant foxtail; [6]) | Bedstraw plant response rating (bedstraw; [3]) | Bedstraw plant response rating (bedstraw; [9]) | Plant response rating, Bedstraw (bedstraw; [7]) | Plant response rating, B. signalgrass (surinam grass; [10]) | Plant response rating, B. signalgrass (surinam grass; [7]) | Blackgrass plant response rating (blackgrass; [9]) | Plant response rating, Blackgrass (blackgrass; [10]) | Plant response rating, Crabgrass (crabgrass; [2]) | Plant response rating, Crabgrass (crabgrass; [4]) | Crabgrass plant response rating (crabgrass; [9]) | Crabgrass plant response rating (crabgrass; [6]) | Plant response rating, Crabgrass (crabgrass; [10]) | Plant response rating, Crabgrass (crabgrass; [7]) | Plant response rating, Wild oats (wild oat; [10]) | Plant response rating, Wild oats (wild oat; [7]) | Plant response rating, Sugarbeets (sugar beet; [7])
3: Plant response rating, Nutsedge (purple nutsedge; [10]) | Cocklebur plant response rating (cocklebur; [3]) | Plant response rating, Cocklebur (cocklebur; [4]) | Redroot pigweed plant response rating (pigweed; [3]) | Plant response rating, Blackgrass (blackgrass; [2]) | Plant response rating, Velvetleaf (velvetleaf; [10]) | Plant response rating, Soybean (soybean; [8]) | Plant response rating, Wheat (wheat; [10]) | Plant response rating, Sugarbeets (sugar beet; [8]) | Plant response rating, Sugarbeets (sugar beet; [2]) | Sugarbeets plant response rating (sugar beet; [9])
6: Rape plant response rating (rape; [9]) | Rape plant response rating (rape; [6]) | Plant response rating, Morningglory (morningglory; [7]) | Wild oats plant response rating (wild oat; [6])
7: Rape plant response rating (rape; [3]) | Plant response rating, Rape (rape; [10]) | Plant response rating, Morningglory (morningglory; [4]) | Plant response rating, Bedstraw (bedstraw; [2]) | Plant response rating, Bedstraw (bedstraw; [10]) | Blackgrass plant response rating (blackgrass; [3]) | Plant response rating, Velvetleaf (velvetleaf; [7]) | Sugarbeets plant response rating (sugar beet; [3])
